# Read-outs that look alike come from different tables or passages of the source.
# Legend:
# C. albicans [1] = assay: Checkerboard assay IL + Clotrimazole, growth on YPD plate post-treatment (fungicidal); type: cell-based; settings: for average growth, visually scored (2 full, 1 interrupted, 0 no growth): [HMIM]Cl 0 mM
# Protocol: C. albicans was grown overnight in YPD liquid media at 30 °C, at which point it was diluted into 10 mL of YPD media at 0.1 OD600 and was grown to mid-log phase 0.5 OD600 and subsequently diluted to 5 × 10^3 CFU/mL cells in YPD of which 180 μL of culture was distributed into a 96-well round-bottom culture dish. To this dish, 20 μL of IL, AF, or IL + AF was added to each well at concentrations indicated in each experiment. These culture plates were grown in an incubator shaker for 48 h at 30 °C, at which point the cultures were mixed by pipetting and then spotted onto YPD solid plates and allowed to grow for an additional 48 h. After 48 h, plates were visually scored for no growth (0), 50% growth (1), or 100% growth relative to PBS control (2). Experiments were performed in triplicate, and scores were averaged per well.
# In order to evaluate if the same combinatorial effect was present in liquid culture and furthermore to identify the specific concentrations at which a combined effect may be present, checkerboard assays were performed. […] These assays were completed in triplicate for both [HMIM]Cl and [OMIM]Cl with the addition of Clotrimazole on C. albicans. In this assay, both IL and AF were loaded into a 96-well plate YPD liquid culture plate in double serial dilutions with decreasing IL from top to bottom and decreasing AF from left to right. Each well represents a different final concentration of both drugs in combination. Growth of the target microorganism was measured as growth in liquid media by OD600 nm, representing fungistatic interactions and [2] growth on a YPD plate post-treatment as fungicidal (Figure 4).
# Checkerboard assays were performed in 96-well plates with Clotrimazole + [HMIM]Cl or [OMIM]Cl on C. albicans. These culture plates were grown in an incubator shaker for 48 h at 23 °C, and thereafter C. albicans was mixed by pipetting and then spotted onto YPD solid plates and allowed to grow for an additional 48 h. After 48 h, plates were visually scored for no growth (0), 50% growth (1), or 100% growth relative to PBS control (2). Experiments were performed in triplicate, and scores were averaged per well. […] We measured this by calculating the fractional inhibitory concentration (FIC) score ((MIC50 IL + AF)/(MIC50 AF)) + ((MIC50 IL + AF)/(MIC50 IL)). In this well-established measure of combined interactions, a score < 0.5 indicated synergistic interaction, 0.5–4 potential combinatorial interaction or no effect, and >4 antagonistic interaction.
# HeLa cells = assay: Checkerboard cytotoxicity assay IL + Clotrimazole, CellTiter-Blue
# Protocol: HeLa cells (Kyoto line) were grown at 37 °C in 5% CO2 using DMEM media with 4.5 g/L glucose + Sodium Pyruvate + L-Glutamine (VWRV02-0101) with 10% FBS. Antibiotics such as Pen/Strep were not used during treatment with ILs or AFs to exclude the possibility of interaction with other antibiotics. HeLa cells were grown to 70–90% confluency in T75 dishes; cells were dissociated with Trypsin/EDTA […] for 3 min and resuspended in 25 mL DMEM +10% FBS; 180 μL cells in media were added to each of the 96 wells on the plasma-treated culture plate and incubated at 37 °C overnight. Solutions of Clotrimazole plus either [HMIM]Cl and [OMIM]Cl were created and 20 μL of IL, AF, or IL + AF were added to 96-well plate and incubated at 37 °C for 24 h. Promega CellTiter-Blue Cell Viability reagent was used to evaluate cytotoxicity in accordance with the manufacturer’s guidelines. For each well, 20 μL of CellTiter-Blue was added and then the plates were incubated for either 1, 2, or 4 h and fluorescence was measured at Ex/EM 485/590 nm using a Biotek Synergy HT fluorometer Winooski, VT USA. EC50 and FIC calculations were performed using these treatments. EC50 calculations were performed using ATTB Bioquest online EC50 calculator and FIC scores were calculated as described in Doern et al..
# One open question is whether addition of either of these ILs at sub-cytotoxic concentrations can improve effectiveness of AFs in fungi vs. mammalian cells. To evaluate this, we performed checkerboard assays for both [HMIM]Cl and [OMIM]Cl in the presence of Clotrimazole and calculated FIC scores as described in C. albicans checkerboard assays.
# C. albicans [2] = assay: MIC50 by microbroth dilution; type: cell-based; settings: Candida albicans, 48 h
# Protocol: (§1) A single colony was picked from each streak to prepare overnight in 5 mL fresh YPD broth and placed into a tilted rotating incubator set at 30 °C and 40 rpm overnight. After ~16–20 h, a fresh dilution in media (1:200) was made and used for the experiment. […] Finally, diluted culture was added to each well of a sterile 96-well plate containing serially diluted aliquots of each RTIL to a total volume of 100 µL. The plate was incubated at 30 °C overnight with shaking for 24 and 48 h. At both timepoints, the yeast was manually resuspended in the plate by pipetting and we measured the OD600 using a Spectramax M5 multimode plate reader (Molecular Devices, San Jose, CA, USA).
# (§2) The four species of yeast tested included three common lab strains of non-pathogenic yeast strains, S. boulardii, S. cerevisiae, and S. pombe, and one common human pathogen, C. albicans.
# S. boulardii = assay: MIC50 by microbroth dilution; type: cell-based; settings: Saccharomyces cerevisiae
# Protocol: as §1, §2
# S. pombe = assay: MIC50 by microbroth dilution; type: cell-based; settings: Schizosaccharomyces pombe
# Protocol: as §1, §2
# S. cerevisiae = assay: MIC50 by microbroth dilution; type: cell-based; settings: Saccharomyces cerevisiae
# Protocol: as §1, §2
# [3] = in combination with Clotrimazole 4 mg/L
# [4] = 50% growth after 48 h in YPD media, OD600, read-out: MIC50
smiles,measurement,setting,value
"CCCCCCCCn1cc[n+](C)c1.[Cl-] [[OMIM]Cl, 1-octyl-3-methylimidazolium chloride]",antifungal effect of IL without Clotrimazole,C. albicans [1]; [OMIM]Cl 6.25 mM,not completely fungicidal
same,IL concentration at 50% growth (MIC50 used for FIC),C. albicans [1]; [3],0.39 mM
same,"IL concentration used for FIC, IL alone",HeLa cells; IL alone,3.125 mM
same,Cell Titer Blue Assay plate reading,"HeLa cells; OMIM[Cl] 0.195312, Clotrimazole 0.03125 mg/mL",553
same,Cell Titer Blue Assay plate reading,"HeLa cells; OMIM[Cl] 0.195312, Clotrimazole 0.0625 mg/mL",506
same,Cell Titer Blue Assay plate reading,"HeLa cells; OMIM[Cl] 0.195312, Clotrimazole 0.125 mg/mL",440
same,Cell Titer Blue Assay plate reading,"HeLa cells; OMIM[Cl] 0.195312, Clotrimazole 0.25 mg/mL",135
same,Cell Titer Blue Assay plate reading,"HeLa cells; OMIM[Cl] 0.195312, Clotrimazole 0.5 mg/mL",30
same,Cell Titer Blue Assay plate reading,"HeLa cells; OMIM[Cl] 0.195312, PBS instead of Clotrimazole",524
same,Cell Titer Blue Assay plate reading,"HeLa cells; OMIM[Cl] 0.390625, Clotrimazole 0.03125 mg/mL",343
same,Cell Titer Blue Assay plate reading,"HeLa cells; OMIM[Cl] 0.390625, Clotrimazole 0.0625 mg/mL",333
same,Cell Titer Blue Assay plate reading,"HeLa cells; OMIM[Cl] 0.390625, Clotrimazole 0.125 mg/mL",92
same,Cell Titer Blue Assay plate reading,"HeLa cells; OMIM[Cl] 0.390625, Clotrimazole 0.25 mg/mL",161
same,Cell Titer Blue Assay plate reading,"HeLa cells; OMIM[Cl] 0.390625, Clotrimazole 0.5 mg/mL",31
same,Cell Titer Blue Assay plate reading,"HeLa cells; OMIM[Cl] 0.390625, PBS instead of Clotrimazole",533
same,Cell Titer Blue Assay plate reading,"HeLa cells; OMIM[Cl] 0.78125, Clotrimazole 0.03125 mg/mL",128
same,Cell Titer Blue Assay plate reading,"HeLa cells; OMIM[Cl] 0.78125, Clotrimazole 0.0625 mg/mL",121
same,Cell Titer Blue Assay plate reading,"HeLa cells; OMIM[Cl] 0.78125, Clotrimazole 0.125 mg/mL",60
same,Cell Titer Blue Assay plate reading,"HeLa cells; OMIM[Cl] 0.78125, Clotrimazole 0.25 mg/mL",66
same,Cell Titer Blue Assay plate reading,"HeLa cells; OMIM[Cl] 0.78125, Clotrimazole 0.5 mg/mL",32
same,Cell Titer Blue Assay plate reading,"HeLa cells; OMIM[Cl] 0.78125, PBS instead of Clotrimazole",180
same,Cell Titer Blue Assay plate reading,"HeLa cells; OMIM[Cl] 1.5625, Clotrimazole 0.03125 mg/mL",126
same,Cell Titer Blue Assay plate reading,"HeLa cells; OMIM[Cl] 1.5625, Clotrimazole 0.0625 mg/mL",45
same,Cell Titer Blue Assay plate reading,"HeLa cells; OMIM[Cl] 1.5625, Clotrimazole 0.125 mg/mL",58
same,Cell Titer Blue Assay plate reading,"HeLa cells; OMIM[Cl] 1.5625, Clotrimazole 0.25 mg/mL",33
same,Cell Titer Blue Assay plate reading,"HeLa cells; OMIM[Cl] 1.5625, Clotrimazole 0.5 mg/mL",36
same,Cell Titer Blue Assay plate reading,"HeLa cells; OMIM[Cl] 1.5625, PBS instead of Clotrimazole",206
same,Cell Titer Blue Assay plate reading,"HeLa cells; OMIM[Cl] 3.125, Clotrimazole 0.03125 mg/mL",47
same,Cell Titer Blue Assay plate reading,"HeLa cells; OMIM[Cl] 3.125, Clotrimazole 0.0625 mg/mL",37
same,Cell Titer Blue Assay plate reading,"HeLa cells; OMIM[Cl] 3.125, Clotrimazole 0.125 mg/mL",36
same,Cell Titer Blue Assay plate reading,"HeLa cells; OMIM[Cl] 3.125, Clotrimazole 0.25 mg/mL",36
same,Cell Titer Blue Assay plate reading,"HeLa cells; OMIM[Cl] 3.125, Clotrimazole 0.5 mg/mL",38
same,Cell Titer Blue Assay plate reading,"HeLa cells; OMIM[Cl] 3.125, PBS instead of Clotrimazole",47
same,Cell Titer Blue Assay plate reading,"HeLa cells; OMIM[Cl] 6.25, Clotrimazole 0.03125 mg/mL",41
same,Cell Titer Blue Assay plate reading,"HeLa cells; OMIM[Cl] 6.25, Clotrimazole 0.0625 mg/mL",38
same,Cell Titer Blue Assay plate reading,"HeLa cells; OMIM[Cl] 6.25, Clotrimazole 0.125 mg/mL",39
same,Cell Titer Blue Assay plate reading,"HeLa cells; OMIM[Cl] 6.25, Clotrimazole 0.25 mg/mL",39
same,Cell Titer Blue Assay plate reading,"HeLa cells; OMIM[Cl] 6.25, Clotrimazole 0.5 mg/mL",40
same,Cell Titer Blue Assay plate reading,"HeLa cells; OMIM[Cl] 6.25, PBS instead of Clotrimazole",41
same,Cell Titer Blue Assay plate reading,"HeLa cells; OMIM[Cl] 12.5, Clotrimazole 0.03125 mg/mL",39
same,Cell Titer Blue Assay plate reading,"HeLa cells; OMIM[Cl] 12.5, Clotrimazole 0.0625 mg/mL",39
same,Cell Titer Blue Assay plate reading,"HeLa cells; OMIM[Cl] 12.5, Clotrimazole 0.125 mg/mL",38
same,Cell Titer Blue Assay plate reading,"HeLa cells; OMIM[Cl] 12.5, Clotrimazole 0.25 mg/mL",37
same,Cell Titer Blue Assay plate reading,"HeLa cells; OMIM[Cl] 12.5, Clotrimazole 0.5 mg/mL",40
same,Cell Titer Blue Assay plate reading,"HeLa cells; OMIM[Cl] 12.5, PBS instead of Clotrimazole",38
same,MIC50,C. albicans [2]; [4],3.12 mM
same,MIC50,S. boulardii; [4],0.625 mM
same,MIC50,S. pombe; [4],1.25 mM
same,MIC50,S. cerevisiae; [4],0.625 mM
Clc1ccccc1C(c1ccccc1)(c1ccccc1)n1ccnc1 [Clotrimazole],"average growth, visually scored (2 full, 1 interrupted, 0 no growth)",C. albicans [1]; Clotrimazole 0.1 mg/L,2
same,"average growth, visually scored (2 full, 1 interrupted, 0 no growth)",C. albicans [1]; Clotrimazole 0.25 mg/L,2
same,"average growth, visually scored (2 full, 1 interrupted, 0 no growth)",C. albicans [1]; Clotrimazole 0.5 mg/L,2
same,"average growth, visually scored (2 full, 1 interrupted, 0 no growth)",C. albicans [1]; Clotrimazole 1 mg/L,2
same,"average growth, visually scored (2 full, 1 interrupted, 0 no growth)",C. albicans [1]; Clotrimazole 2 mg/L,1.67
same,"average growth, visually scored (2 full, 1 interrupted, 0 no growth)",C. albicans [1]; Clotrimazole 4 mg/L,1.33
same,"average growth, visually scored (2 full, 1 interrupted, 0 no growth)",C. albicans [1]; Clotrimazole 8 mg/L,1
same,"average growth, visually scored (2 full, 1 interrupted, 0 no growth)",C. albicans [1]; Clotrimazole 15 mg/L,1
same,"average growth, visually scored (2 full, 1 interrupted, 0 no growth)",C. albicans [1]; Clotrimazole 31 mg/L,1
same,"average growth, visually scored (2 full, 1 interrupted, 0 no growth)",C. albicans [1]; Clotrimazole 62 mg/L,0.67
same,"average growth, visually scored (2 full, 1 interrupted, 0 no growth)",C. albicans [1]; Clotrimazole 125 mg/L,0.67
same,"average growth, visually scored (2 full, 1 interrupted, 0 no growth)",C. albicans [1]; Clotrimazole 250 mg/L,0.33
same,Clotrimazole concentration at 50% growth,C. albicans [1]; with 0.39 mM [OMIM]Cl,4 mg/L
same,Clotrimazole concentration at 50% growth,C. albicans [1]; with 1.562 mM [HMIM]Cl,4 mg/L
same,"Clotrimazole concentration used for FIC, alone","HeLa cells; human, 24 h",250 mg/L
same,MIC50,C. albicans [2]; [4],1 µg/mL
same,MIC50,S. boulardii; [4],1 µg/mL
same,MIC50,S. pombe; [4],1 µg/mL
same,MIC50,S. cerevisiae; [4],1 µg/mL
"CCCCCCn1cc[n+](C)c1.[Cl-] [[HMIM]Cl, 1-hexyl-3-methylimidazolium chloride]",IL concentration at 50% growth (MIC50 used for FIC),"C. albicans [1]; IL alone, fungicidal checkerboard",6.25 mM
same,antifungal effect of IL without Clotrimazole,C. albicans [1]; [HMIM]Cl 12.5 mM,not completely fungicidal
same,IL concentration at 50% growth (MIC50 used for FIC),C. albicans [1]; [3],1.562 mM
same,"IL concentration used for FIC, IL alone","HeLa cells; human, 24 h",12.5 mM
same,"IL concentration used for FIC, in combination","HeLa cells; human, 24 h",12.5 mM
same,MIC50,C. albicans [2],25 mM
same,MIC50,S. boulardii; 48 h,6.25 mM
same,MIC50,S. pombe; 48 h,6.25 mM
same,MIC50,S. cerevisiae; 48 h,6.25 mM

# Source: publication PMC12730265, “Combinatorial Antimicrobial Effects of Imidazolium-Based Ionic Liquids and Antifungals on Model Fungal Organisms” (Biomolecules, 2025)
